Measured values reported in patent US12152017B2, “Ketoamide compound and preparation method, pharmaceutical composition, and use thereof” (Shanghai Institute of Materia Medica, Chinese Academy of …, priority 2018, dated 2024).
Values joined by “and” are separate entries in the source; they are usually repeats but may differ in a detail not shown here. Equal values may be shown once. Read-outs that look alike come from different tables or passages of the source.

Columns and labels:
HCoV-229E pseudovirus = assay: microbe, parasite or virus in culture; assay type: cell-based; conditions: Human coronavirus 229E, read-out: viral inhibitory effect, HCoV-229E pseudovirus
VSV-G pseudovirus = assay type: cell-based
[1] = In vivo safety: body weight of mice during 7 days of intraperitoneal administration; parameters: species or system Balb/c mice; conditions: 100 mg/kg i.p. once a day for 7 consecutive days
Method: Next, we further evaluated the safety of compound A13 in mice. The mice in the drug group (100 mg/kg) and the DMSO control group were administered intraperitoneally, once a day, for 7 consecutive days, and then the growth status and weight changes of the mice in each group were observed.

[2] = Pharmacokinetic study in CD-1 mice (gavage, intravenous, intraperitoneal); assay type: in vivo; conditions: for bioavailability: read-out: F (bioavailability)
Method: Nine CD-1 mice, male, weighing 18-22 g, were randomly divided into 3 groups with 3 mice in each group. The test compounds were administered by gavage, intravenously and intraperitoneally according to the following schemes.
Before the test, they were fasted for 12 hours and were allowed to drink water freely, and were fed uniformly 2 h after administration.
There were 3 animals at each time point.
The solution for gavage administration was formulated with DMSO/0.5% HPMC (5/95, v/v) into the final concentration. Intravenous and intraperitoneal administration were formulated with DMSO/PEG300/EtOH/NaCl (5/40/5/50, v/v/v). Retention samples of the dosing solution (50 μL of the drug solution was taken and mixed well with 50 μL of DMSO before and after the administration) for testing.
The drug was administered according to the above dosage, the time of administration were recorded, and 20 μL of blood was collected from the mouse femoral plexus at the above set time point and placed in a heparinized test tube and centrifuged immediately at 11000 rpm for 5 min. 10 μL of plasma was immediately and accurately drawn into a centrifuge tube pre-filled with 100 μL of PK-IS solution (prepared with methanol:acetonitrile (1:1, v/v)), mixed well, and frozen to store at −20° C. for testing.

MERS-CoV pseudovirus = assay: microbe, parasite or virus in culture; assay type: cell-based; conditions: Middle East respiratory syndrome-related coronavirus, Huh-7; 100 nM; read-out: viral inhibitory effect, MERS-CoV pseudovirus
in vitro = conditions: human
SARS-CoV pseudovirus = assay: microbe, parasite or virus in culture; assay type: cell-based; conditions: Severe acute respiratory syndrome coronavirus; 100 nM; read-out: viral inhibitory effect, SARS-CoV pseudovirus
[3] = i.p. (20 mg/Kg per Table 3), Mean of 3 mice
[4] = i.p. (20 mg/Kg per Table 3), individual animal, 20 mg/kg
[5] = i.v. 10 mg/Kg, individual animal, 10 mg/kg
[6] = male, CD-1, mouse, plasma, ip, 20 mg/kg, i.p. (20 mg/Kg per Table 3), individual animal
[7] = p.o. (gavage 20 mg/Kg per Table 3), Mean of 3 mice
[8] = p.o. (gavage 20 mg/Kg per Table 3), individual animal, 20 mg/kg

**Q.** Which inhibition at 0.1 µM (HCoV-229E pseudovirus) does the source give for O=C(NCc1ccccc1)C(=O)[C@H](C[C@@H]1CCCNC1=O)NC(=O)[C@H](CC1CCCCC1)NC(=O)c1cc2ccccc2o1 [Example A13] here?
**A.** Its inhibition at 0.1 µM is about 90%.

**Q.** And the “inhibitory effect on VSV-G-mediated pseudovirus infection” value (VSV-G pseudovirus)?
**A.** Its value is “did not show an effective inhibitory effect”.

**Q.** And the “body weight change versus control group” value [1]?
**A.** The value was “no difference of the body weight”.

**Q.** And the “AUC INF_obs” value [2, 3]?
**A.** Its value is 7635 ng·h/mL.

**Q.** What about the “AUC last (exposure for intraperitoneal injection)” value [2, 3] of the same compound?
**A.** The value was 7298 ng·h/mL.

**Q.** What about the C max [2, 3] of the same compound?
**A.** The C max was 3270 ng/mL.

**Q.** What about the “MRT INF_obs” value [2, 3] of the same compound?
**A.** Its value is 5.34 h.

**Q.** And the T1/2 [2, 3]?
**A.** Its T1/2 is 5.77 h.

**Q.** What about the “AUC INF_obs” value [2, 4] of the same compound?
**A.** The value was 7708 ng·h/mL and 8196 ng·h/mL.

**Q.** What about the AUC last [2, 4] of the same compound?
**A.** Its AUC last is 7304 ng·h/mL and 8077 ng·h/mL.

**Q.** And the C max [2, 4]?
**A.** Its C max is 3583 ng/mL and 3372 ng/mL.

**Q.** And the “MRT INF_obs” value [2, 4]?
**A.** Its value is 6.69 h and 6.05 h and 3.28 h.

**Q.** What about the T1/2 [2, 4] of the same compound?
**A.** The T1/2 was 5.90 h and 4.94 h.

**Q.** And the T max [2, 4]?
**A.** The T max was 0.250 h and 0.050 h.

**Q.** What about the “AUC INF_obs” value ([2]; i.v. 10 mg/Kg, Mean of 3 mice) of the same compound?
**A.** Its value is 2976 ng·h/mL.

**Q.** What about the AUC last ([2]; i.v. 10 mg/Kg, Mean of 3 mice) of the same compound?
**A.** The AUC last was 2896 ng·h/mL.

**Q.** What about the Cl_obs ([2]; i.v. 10 mg/Kg, Mean of 3 mice) of the same compound?
**A.** The Cl_obs was 62.5 mL/min/kg.

**Q.** And the “MRT INF_obs” value ([2]; i.v. 10 mg/Kg, Mean of 3 mice)?
**A.** The value was 1.88 h.

**Q.** And the T1/2 ([2]; i.v. 10 mg/Kg, Mean of 3 mice)?
**A.** Its T1/2 is 3.34 h.

**Q.** And the VSS_obs ([2]; i.v. 10 mg/Kg, Mean of 3 mice)?
**A.** Its VSS_obs is 6.419 L/kg.

**Q.** And the “AUC INF_obs” value [2, 5]?
**A.** Its value is 3411 ng·h/mL and 1773 ng·h/mL and 3745 ng·h/mL.

**Q.** What about the AUC last [2, 5] of the same compound?
**A.** Its AUC last is 3300 ng·h/mL and 1734 ng·h/mL and 3652 ng·h/mL.

**Q.** What about the Cl_obs [2, 5] of the same compound?
**A.** The Cl_obs was 48.9 mL/min/kg and 94.0 mL/min/kg and 44.5 mL/min/kg.

**Q.** What about the “MRT INF_obs” value [2, 5] of the same compound?
**A.** Its value is 3.11 h and 1.13 h and 1.40 h.

**Q.** And the T1/2 [2, 5]?
**A.** The T1/2 was 6.09 h and 2.07 h and 1.87 h.

**Q.** And the VSS_obs [2, 5]?
**A.** The VSS_obs was 9.132 L/kg and 6.389 L/kg and 3.736 L/kg.

**Q.** What about the bioavailability ([2]; male, CD-1, mouse, plasma, intraperitoneal, i.p. 20 mg/Kg vs i.v. 10 mg/Kg) of the same compound?
**A.** Its bioavailability is 126%.

**Q.** And the Tmax ([2]; male, CD-1, mouse, plasma, ip, 20 mg/kg, i.p. (20 mg/Kg per Table 3), Mean of 3 mice)?
**A.** Its Tmax is 0.183 h.

**Q.** What about the Cmax [2, 6] of the same compound?
**A.** The Cmax was 2860 ng/mL.

**Q.** And the half-life [2, 6]?
**A.** The half-life was 6.46 h.

**Q.** And the AUC(0-inf) ([2]; male, CD-1, mouse, plasma, ip, 20 mg/kg, i.p. (20 mg/Kg per Table 3), individual animal, read-out: AUC INF_obs)?
**A.** The AUC(0-inf) was 7000 ng·h/mL.

**Q.** And the AUC(0-t) ([2]; male, CD-1, mouse, plasma, ip, 20 mg/kg, i.p. (20 mg/Kg per Table 3), individual animal, read-out: AUC last)?
**A.** Its AUC(0-t) is 6510 ng·h/mL.

**Q.** What about the bioavailability ([2]; male, CD-1, mouse, plasma, oral, p.o. 20 mg/Kg vs i.v. 10 mg/Kg) of the same compound?
**A.** The bioavailability was 7.99%.

**Q.** What about the “AUC INF_obs” value [2, 7] of the same compound?
**A.** Its value is 488 ng·h/mL.

**Q.** And the “AUC last (oral exposure)” value [2, 7]?
**A.** Its value is 463 ng·h/mL.

**Q.** What about the C max [2, 7] of the same compound?
**A.** Its C max is 290 ng/mL.

**Q.** And the “MRT INF_obs” value [2, 7]?
**A.** The value was 2.11 h.

**Q.** What about the T1/2 [2, 7] of the same compound?
**A.** Its T1/2 is 1.32 h.

**Q.** What about the T max [2, 7] of the same compound?
**A.** The T max was 0.250 h.

**Q.** What about the T max ([2]; p.o. (gavage 20 mg/Kg per Table 3), individual animal) of the same compound?
**A.** Its T max is 0.250 h.

**Q.** And the “AUC INF_obs” value [2, 8]?
**A.** The value was 700 ng·h/mL and 499 ng·h/mL and 263 ng·h/mL.

**Q.** And the AUC last [2, 8]?
**A.** The AUC last was 690 ng·h/mL and 458 ng·h/mL and 241 ng·h/mL.

**Q.** And the C max [2, 8]?
**A.** Its C max is 493 ng/mL and 259 ng/mL and 118 ng/mL.

**Q.** What about the “MRT INF_obs” value [2, 8] of the same compound?
**A.** The value was 1.37 h and 3.08 h and 1.88 h.

**Q.** What about the T1/2 [2, 8] of the same compound?
**A.** The T1/2 was 0.619 h and 2.15 h and 1.18 h.

**Q.** And the “CC50 relative to the detection dose” value (Huh-7 cells)?
**A.** The value was “more than 1000 times”.

**Q.** What about the inhibition at 0.1 µM (MERS-CoV pseudovirus) of the same compound?
**A.** Its inhibition at 0.1 µM is about 90%.

**Q.** And the CC50 (in vitro)?
**A.** The CC50 was over 100000 nM.

**Q.** What about the “Inhibition of HCoV-OC43 infection and CPE” value (HCoV-OC43 live virus; 1 μM, HCT-8 cells) of the same compound?
**A.** The value was “effectively block the virus infection”.

**Q.** What about the IC50 (HCoV-OC43 live virus; Betacoronavirus 1, OC43, HCT-8, read-out: IC50 against HCoV-OC43 live virus infection) of the same compound?
**A.** Its IC50 is 86 nM.

**Q.** What about the “protective effect on target cells (CPE) at different concentrations” value (HCoV-OC43 live virus; HCT-8 cells, HCoV-OC43) of the same compound?
**A.** Its value is “obviously dose-dependent”.

**Q.** And the inhibition at 0.1 µM (SARS-CoV pseudovirus)?
**A.** Its inhibition at 0.1 µM is about 90%.
